The values below come from patent US9732087B2, “Diamino-pyridine, pyrimidine, and pyridazine modulators of the histamine H4 receptor” (JANSSEN PHARMACEUTICA NV, priority 2008, dated 2017).

For orientation: Ki means a dissociation constant, usually derived from enzyme kinetics or from competition with a known ligand.

The target of one experiment is human H4 receptor (Homo sapiens (Human), UniProt Q9H3N8). Briefly: Binding assay on recombinant human histamine H4 receptor ([3H]histamine competition, SK-N-MC cell membranes). The settings on record: membranes harvested with 96 well Brandel system; [3H]histamine 10 nM; average of results; read-out: Brandel Ki. The procedure, abridged: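 Membranes from SK-N-MC cells stably or transiently transfected with human H4 receptor, prepared by homogenization and 30,000 g centrifugation in Tris/EDTA. Bound [3H]histamine separated by rapid filtration on PEI-treated GF/C filters, washed with ice-cold Tris/EDTA, counted by scintillation. '>' values denote highest concentration tested.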
Chain of human H4 receptor (Q9H3N8 whole entry): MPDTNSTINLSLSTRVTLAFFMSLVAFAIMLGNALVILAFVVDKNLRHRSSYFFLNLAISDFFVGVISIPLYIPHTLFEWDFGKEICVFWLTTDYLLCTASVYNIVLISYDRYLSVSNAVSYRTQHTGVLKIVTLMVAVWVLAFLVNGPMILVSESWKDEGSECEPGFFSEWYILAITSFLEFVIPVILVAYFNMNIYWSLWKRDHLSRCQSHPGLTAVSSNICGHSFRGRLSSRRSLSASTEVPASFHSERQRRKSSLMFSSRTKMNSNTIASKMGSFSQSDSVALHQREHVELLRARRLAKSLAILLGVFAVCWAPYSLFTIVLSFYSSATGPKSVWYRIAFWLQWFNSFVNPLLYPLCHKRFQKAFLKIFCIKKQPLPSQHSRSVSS
Regarding `CN[C@@H]1CCN(c2ccnc(N[C@H]3C[C@H]4C[C@@H]([C@@H]3C)C4(C)C)c2)C1` [Example 9, 4-[(3R)-3-(Methylamino)pyrrolidin-1-yl]-N-[(1S,2S,3S,5R)-2,6,6-trimethylbicyclo[3.1.1]hept-3-yl]pyridin-2-amine], the Ki stood at 1 nM.
The same measure, in the same setting: next, `CN[C@@H]1CCN(c2cnnc(NC3CCCCC3)c2)C1` [Example 98, N-Cyclohexyl-5-[(3R)-3-(methylamino)pyrrolidin-1-yl]pyridazin-3-amine]: 4.8 nM.
On to `CN[C@@H]1CCN(c2ccnc(N[C@@H]3C[C@@H]4C[C@H]([C@H]3C)C4(C)C)c2)C1` [Example 10, 4-[(3R)-3-(Methylamino)pyrrolidin-1-yl]-N-[(1R,2R,3R,5S)-2,6,6-trimethylbicyclo[3.1.1]hept-3-yl]pyridin-2-amine], for which the Ki was 0.5 nM.

The experiment is the same for the next values; noted with them: membranes harvested with cell harvester; [3H]histamine 10 nM; average of results; read-out: Cell Harvester Ki.
`c1cc(N2C[C@H]3CCN[C@H]3C2)cc(NC23CC4CC(CC(C4)C2)C3)n1` [Example 296, Adamantan-1-yl-[4-(3aR,6aR)-(hexahydro-pyrrolo[3,4-b]pyrrol-5-yl)-pyridin-2-yl]-amine]: the Ki worked out at 64.2 nM.
As to `CC(C)(CO)CNc1cc(N2CC[C@@H](N)C2)cnn1` [Example 350, 3-({5-[(3R)-3-Aminopyrrolidin-1-yl]pyridazin-3-yl}amino)-2,2-dimethylpropan-1-ol], the Ki was 1720 nM.
In the case of `CN[C@@H]1CCN(c2ccnc(NCC3CC4CCC3C4)c2)C1` (stereo partly drawn) [Example 253, N-(Bicyclo[2.21]hept-2-ylmethyl)-4-[(3R)-3-(methylamino)pyrrolidin-1-yl]pyridin-2-amine], the Ki was determined as 4.33 nM.
In the case of `C[C@@H](Nc1cc(N2C[C@H]3CCN[C@H]3C2)ccn1)C1CCCCC1` [Example 271, N-[(1R)-1-Cyclohexylethyl]-4-[(3aR,6aR)-hexahydropyrrolo[3,4-b]pyrrol-5(1H)-yl]pyridin-2-amine], the Ki came to 189 nM.
In the case of `Cc1ccc(CNc2nccc(N3CC[C@@H](N)C3)n2)cc1` [Example 186, 4-[(3R)-3-Aminopyrrolidin-1-yl]-N-(4-methylbenzyl)pyrimidin-2-amine], the Ki was determined as 691 nM.
As to `CN[C@H]1CCN(c2ccnc(NCCOC)c2)C1` [Example 238, N-(2-Methoxyethyl)-4-[(3S)-3-(methylamino)pyrrolidin-1-yl]pyridin-2-amine], the inhibition constant (Ki) worked out at 555 nM.
Turning to `COCCNc1cc(N2CCNCC2)ccn1` [Example 37, N-(2-Methoxyethyl)-4-piperazin-1-ylpyridin-2-amine], the Ki was determined as 247 nM.
On to `CN(CCN)c1cnnc(NC2CC3CCC2C3)c1` (stereo not shown) [Example 302, N^5-(2-Amino-ethyl)-N^3-bicyclo[2.2.1]hept-2yl-N^5-methylpyridazine-3,5-diamine], for which the Ki was determined as 98.1 nM.
Turning to `CN[C@@H]1CCN(c2ccnc(NCC3CCCCC3)c2)C1` [Example 211, N-(Cyclohexylmethyl)-4-[(3R)-3-(methylamino)pyrrolidin-1-yl]pyridin-2-amine], the Ki stood at 1.68 nM.
`CNC1CN(c2cnnc(NCCCO)c2)C1` [Example 334, 3-({5-[3-(Methylamino)azetidin-1-yl]pyridazin-3-yl}amino)propan-1-ol]: the Ki is 2570 nM.
Regarding `CN[C@H]1CCN(c2ccnc(NCCCO)n2)C1` [Example 152, 3-({4-[(3S)-3-(Methylamino)pyrrolidin-1-yl]pyrimidin-2-yl}amino)propan-1-ol], the inhibition constant (Ki) turned out to be 2300 nM.
In the case of `CN1CCN(c2ccnc(N[C@H]3C[C@H]4CC[C@]3(C)C4(C)C)c2)CC1` [Example 252, 4-(4-Methylpiperazin-1-yl)-N-[(1R,2S,4R)-1,7,7-trimethylbicyclo[2.2.1]hept-2-yl]pyridin-2-amine], the Ki was 190 nM.
Same read-out and setting: next, `CC(C)CNc1nccc(N2CC[C@@H](N)C2)n1` [Example 23, 4-[(3R)-3-Aminopyrrolidin-1-yl]-N-(2-methylpropyl)pyrimidin-2-amine]: 2.7 nM.
`CN1CCN(c2ccnc(NCCc3ccccc3)c2)CC1` [Example 250, 4-(4-Methylpiperazin-1-yl)-N-(2-phenylethyl)pyridin-2-amine]: the Ki came to 659 nM.
With `CNC1CN(c2ccnc(NCc3ccc(F)cc3)n2)C1` [Example 178, N-(4-Fluorobenzyl)-4-[3-(methylamino)azetidin-1-yl]pyrimidin-2-amine], the Ki was 243 nM.
On to `C[C@@H](Nc1nccc(N2CC[C@@H](N)C2)n1)C1CCCCC1` [Example 103, 4-[(3R)-3-Aminopyrrolidin-1-yl]-N-[(1R)-1-cyclohexylethyl]pyrimidin-2-amine], for which the Ki was determined as 168 nM.
On the same count and under the same terms, with `COCCNc1cc(N2CC(N)C2)cnn1` [Example 335, 5-(3-Aminoazetidin-1-yl)-N-(2-methoxyethyl)pyridazin-3-amine] the figure was more than 10000 nM.
`CN[C@@H]1CCN(c2ccnc(NCC(C)(C)C)c2)C1` [Example 41, N-(2,2-Dimethylpropyl)-4-[(3R)-3-(methylamino)pyrrolidin-1-yl]pyridin-2-amine]: the Ki worked out at 2.2 nM.
`NC1CN(c2cnnc(NC3CC4CCC3C4)c2)C1` (stereo not shown) [Example 322, 5-(3-Aminoazetidin-1-yl)-N-bicyclo[2.2.1]hept-2-ylpyridazin-3-amine]: the Ki is 88.1 nM.
For `CN1CCN(c2ccnc(NCc3ccc(F)cc3)c2)CC1` [Example 249, N-(4-Fluorobenzyl)-4-(4-methylpiperazin-1-yl)pyridin-2-amine], the Ki was found to be 257 nM.
Same read-out and setting: with `c1cc(N2C[C@H]3CCN[C@H]3C2)nc(NC2CCCC2)n1` [Example 139, N-Cyclopentyl-4-[(3aR,6aR)-hexahydropyrrolo[3,4-b]pyrrol-5(1H)-yl]pyrimidin-2-amine] the figure was 7.96 nM.
In the case of `CN[C@H]1CCN(c2ccnc(NCc3ccccn3)c2)C1` [Example 229, 4-[(3S)-3-(Methylamino)pyrrolidin-1-yl]-N-(pyridin-2-ylmethyl)pyridin-2-amine], the Ki is more than 10000 nM.
For `CNC1CN(c2ccnc(NCCCO)n2)C1` [Example 135, 3-({4-[3-(Methylamino)azetidin-1-yl]pyrimidin-2-yl}amino)propan-1-ol], the Ki was 15.9 nM.
As for `CN[C@H]1CCN(c2cnnc(NCCCO)c2)C1` [Example 403, 3-({5-[(3S)-3-(Methylamino)pyrrolidin-1-yl]pyridazin-3-yl}amino)propan-1-ol], the Ki was more than 10000 nM.
Same read-out and setting: with `CNC1CN(c2cnnc(NC3C[C@H]4C[C@@H](C3C)C4(C)C)c2)C1` (stereo partly drawn) [Example 301, 5-[3-(Methylamino)azetidin-1-yl]-N-[(1S,5R)-2,6,6-trimethylbicyclo[3.1.1]hept-3-yl]pyridazin-3-amine] the figure was 202 nM.
Same read-out and setting: with `CN1CCN(c2ccnc(NC[C@]34C[C@H]5C[C@H](C[C@H](C5)C3)C4)c2)CC1` [Example 255, Adamantan-1-ylmethyl-[4-(4-methyl-piperazin-1-yl)-pyridin-2-yl]amine] the figure was 1940 nM.
As to `N[C@@H]1CCN(c2ccnc(NCC3CC3)n2)C1` [Example 24], the Ki turned out to be 3.32 nM.
On to `c1cc(N2CCNCC2)cc(NCC2CCCC2)n1` [Example 311, N-(Cyclopentylmethyl)-4-piperazin-1-ylpyridin-2-amine], for which the inhibitory constant (Ki) came to 226 nM.
As for `CN[C@@H]1CCN(c2ccnc(NCCOC)n2)C1` [Example 82, (2-Methoxy-ethyl)-[4-(3R)-(3-methylamino-pyrrolidin-1-yl)-pyrimidin-2-yl]-amine], the inhibition constant (Ki) came to 45.5 nM.
Take `NC1CN(c2ccnc(NC3CC4CCC3C4)n2)C1` (stereo not shown) [Example 87, 4-(3-Aminoazetidin-1-yl)-N-bicyclo[2.2.1]hept-2-ylpyrimidin-2-amine]: the Ki was found to be 33.7 nM.
`CN[C@@H]1CCN(c2ccnc(NC3CC4CCC3C4)n2)C1` (stereo partly drawn) [Example 74, Bicyclo[2.2.1]hept-2-yl-[4-(3R)-(3-methylamino-pyrrolidin-1-yl)-pyrimidin-2-yl]-amine]: the Ki amounted to 1.2 nM.
On to `CN[C@@H]1CCN(c2ccnc(N[C@H]3C[C@H]4C[C@@H]([C@@H]3C)C4(C)C)c2)C1` [Example 9, 4-[(3R)-3-(Methylamino)pyrrolidin-1-yl]-N-[(1S,2S,3S,5R)-2,6,6-trimethylbicyclo[3.1.1]hept-3-yl]pyridin-2-amine], for which the Ki was 0.4 nM.
As to `CN[C@@H]1CCN(c2cnnc(NC3CCCCC3)c2)C1` [Example 98, N-Cyclohexyl-5-[(3R)-3-(methylamino)pyrrolidin-1-yl]pyridazin-3-amine], the Ki was determined as 4.8 nM.
In the case of `CC(C)Nc1nccc(N2CC[C@@H](N)C2)n1` [Example 52, 4-[(3R)-3-Aminopyrrolidin-1-yl]-N-(1-methylethyl)pyrimidin-2-amine], the Ki was found to be 33.4 nM.
Turning to `CN1CCN(c2ccnc(NC3CCCC3)n2)CC1` [Example 48, N-Cyclopentyl-4-(4-methylpiperazin-1-yl)pyrimidin-2-amine], the Ki is 26.7 nM.
In the case of `CN[C@H]1CCN(c2ccnc(NC[C@H]3CC[C@H]4C[C@@H]3C4(C)C)c2)C1` [Example 224, N-{[(1S,2S,5S)-6,6-Dimethylbicyclo[3.1.1]hept-2-yl]methyl}-4-[(3S)-3-(methylamino)pyrrolidin-1-yl]pyridin-2-amine], the Ki came out at 239 nM.
`CN[C@H]1CCN(c2ccnc(NC3CC3)n2)C1` [Example 145, N-Cyclopropyl-4-[(3S)-3-(methylamino)pyrrolidin-1-yl]pyrimidin-2-amine]: the Ki was found to be 923 nM.
As to `N[C@H]1CCN(c2ccnc(NCc3ccccc3)c2)C1` [Example 267, 4-[(3S)-3-Aminopyrrolidin-1-yl]-N-benzylpyridin-2-amine], the Ki was found to be 1530 nM.
Turning to `Cc1ccc(CNc2nccc(N3CCN(C)CC3)n2)cc1` [Example 163], the Ki amounted to 278 nM.
For `CN1CCN(c2ccnc(NCC3CCCO3)n2)CC1` (stereo not shown) [Example 50, 4-(4-Methylpiperazin-1-yl)-N-(tetrahydrofuran-2-ylmethyl)pyrimidin-2-amine], the Ki is 33.2 nM.
Regarding `c1nnc(NCC2CCCC2)cc1N1CCCNCC1` [Example 316, N-(Cyclopentylmethyl)-5-(1,4-diazepan-1-yl)pyridazin-3-amine], the Ki turned out to be 275 nM.
The same measure, in the same setting: with `c1cc(N2CCNCC2)nc(NC2CCCC2)n1` [Example 63, Cyclopentyl-(4-piperazin-1-yl-pyrimidin-2-yl)-amine] the figure was 293 nM; with `CN[C@@H]1CCN(c2ccnc(N[C@@H]3C[C@@H]4C[C@H]([C@H]3C)C4(C)C)c2)C1` [Example 10, 4-[(3R)-3-(Methylamino)pyrrolidin-1-yl]-N-[(1R,2R,3R,5S)-2,6,6-trimethylbicyclo[3.1.1]hept-3-yl]pyridin-2-amine], 0.5 nM.
